Results as given in the supplement of paper PMC5908809.

Columns and labels:
[1] = system: normal NK cells expanded with K562-aAPC; assay: drug sensitivity score (DSS) (DSS units); higher = more sensitive; extreme values may be limits of the assay; details: 72 h; IL-2 2.5 ng/mL
Experimental: (§1)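 Drug sensitivity and resistance testing on K562-aAPC-expanded normal NK cells: 5 concentrations (10-fold steps over a 10,000-fold range), 72 h at 37 °C, viability by CellTiter-Glo normalised to DMSO and benzethonium chloride controls; DSS from the fitted curve.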

[2] = system: SNK-6 (IL-2 2.5 ng/mL); assay: percent inhibition of viability; higher = more inhibition; details: 72 h
[3] = system: normal primary NK cells, pool 1 (3 donors), resting (IL-2 0 ng/mL); assay: as above; details: 72 h
[4] = system: IMC-1 (IL-2 20 ng/mL); assay: as above; details: 72 h
[5] = system: NK-92 (IL-2 2.5 ng/mL); assay: as above; details: 72 h
[6] = system: KHYG-1 (IL-2 2.5 ng/mL); assay: as above; details: 72 h
[7] = system: normal primary NK cells, pool 3 (3 donors) (IL-2 2.5 ng/mL); assay: as above; details: 72 h
[8] = system: YT (IL-2 2.5 ng/mL); assay: as above; details: 72 h
[9] = system: normal primary NK cells, pool 1 (3 donors) (IL-2 2.5 ng/mL); assay: as above; details: 72 h
[10] = system: normal primary NK cells, pool 2 (3 donors) (IL-2 2.5 ng/mL); assay: as above; details: 72 h
[11] = system: NKL (IL-2 2.5 ng/mL); assay: as above; details: 72 h
[12] = system: NK-YS (IL-2 2.5 ng/mL); assay: as above; details: 72 h
[13] = system: DERL-7 (IL-2 2.5 ng/mL); assay: as above; details: 72 h
[14] = system: KAI3 (IL-2 2.5 ng/mL); assay: as above; details: 72 h
[15] = system: SNK-6 (IL-2 2.5 ng/mL); assay: drug sensitivity score (DSS) (DSS units); higher = more sensitive; extreme values may be limits of the assay; details: 72 h
[16] = system: normal primary NK cells, pool 1 (3 donors), resting (IL-2 0 ng/mL); assay: as above; details: 72 h
[17] = system: IMC-1 (IL-2 20 ng/mL); assay: as above; details: 72 h
[18] = system: NK-92 (IL-2 2.5 ng/mL); assay: as above; details: 72 h
[19] = system: KHYG-1 (IL-2 2.5 ng/mL); assay: as above; details: 72 h
[20] = system: normal primary NK cells, pool 3 (3 donors) (IL-2 2.5 ng/mL); assay: as above; details: 72 h
[21] = system: YT (IL-2 2.5 ng/mL); assay: as above; details: 72 h
[22] = system: normal primary NK cells, pool 1 (3 donors) (IL-2 2.5 ng/mL); assay: as above; details: 72 h
[23] = system: normal primary NK cells, pool 2 (3 donors) (IL-2 2.5 ng/mL); assay: as above; details: 72 h
[24] = system: NKL (IL-2 2.5 ng/mL); assay: as above; details: 72 h
[25] = system: NK-YS (IL-2 2.5 ng/mL); assay: as above; details: 72 h
[26] = system: DERL-7 (IL-2 2.5 ng/mL); assay: as above; details: 72 h
[27] = system: KAI3 (IL-2 2.5 ng/mL); assay: as above; details: 72 h
[28] = system: normal NK cells expanded with K562-aAPC; assay: percent inhibition of viability; higher = more inhibition; details: 72 h, IL-2 2.5 ng/mL
Experimental: as §1

CCn1nnc2c(N3CCOCC3)nc(-c3ccc(NC(=O)Nc4ccc(C(=O)N5CCN(C)CC5)cc4)cc3)nc21 [PKI-402] (max concentration tested 2500 nM)
Details	drug sensitivity score
[1]	4.52
[15]	6.93
[16]	7.08
[17]	0.69
[18]	5.62
[19]	8.93
[20]	3.19
[21]	10.6
[22]	7.21
[23]	3.74
[24]	11.6
[25]	10.6
[26]	15.9
[27]	11.4

percent inhibition of viability [%]
Details	0.25 nM	2.5 nM	25 nM	250 nM	2500 nM
[2]	-8.78	-15.4	-7.51	33.2	54.5
[3]	-7.29	0.44	14.9	31.1	26.7
[4]	-5.86	-7.07	-15	-6.11	25.1
[5]	-19.1	-16.8	-1.05	13.1	63.7
[6]	-6.21	-11	-2.81	30.4	84.9
[7]	-10.9	-4.56	0.88	11	34.4
[8]	-3.62	-7.8	0.22	50.5	82.6
[9]	1.41	-3.9	19.1	28.9	48.2
[10]	-8.91	-3.82	2.65	17.3	38.4
[11]	-5.68	-11.2	4.32	60	68.9
[12]	-6.47	-8.86	4.39	52	75.7
[13]	-1.72	1.39	10.1	79.5	93.8
[14]	-2.89	-4.76	8.59	55.9	67.9
[28]	-5.93	-8.28	-5.99	11.4	51

C1=N/C2=N/c3ccc(OCCN4CCCC4)c(c3)COC/C=C/COCc3cccc(c3)C(=C1)N2 [Pacritinib] (max concentration tested 10000 nM)
Details	drug sensitivity score
[1]	12.8
[15]	9.9
[16]	12.6
[17]	4.5
[18]	10.7
[19]	12.8
[20]	14.1
[21]	12.2
[22]	16.2
[23]	16.2
[24]	13.1
[25]	11.7
[26]	14.1
[27]	14.2

percent inhibition of viability [%]
Details	1 nM	10 nM	100 nM	1000 nM	10000 nM
[2]	-2.06	1.27	-10.4	30.5	99.4
[3]	-8.26	-5.07	-1.15	60.6	99.4
[4]	-5.72	-0.5	-10.2	-17.7	98.5
[5]	-16.4	-11.8	1.4	37.9	100
[6]	-2.5	-2.14	-0.78	61.7	102
[7]	-10.8	-10.8	0.28	75.3	98.7
[8]	-5.32	-0.86	-1.84	55.9	102
[9]	2.77	-5.07	8.34	82.1	99.9
[10]	-8.58	0.56	8.47	82.3	95.9
[11]	-10.8	-10.3	-2.07	65.3	102
[12]	-5.53	0.76	3.37	50.8	102
[13]	-0.5	3.08	13.1	64.9	99.9
[14]	-4.38	0.97	8.91	68.1	102
[28]	-2.28	-6.13	9.28	58.8	99.4

COc1ccc(COc2cc3oc(=O)c4cc(C(C)O)ccc4c3cc2OC)cc1 (configuration not stated) [Palomid-529] (max concentration tested 10000 nM)
Details	drug sensitivity score
[1]	0
[15]	0
[16]	0
[17]	0
[18]	8.66
[19]	4.78
[20]	0
[21]	4.52
[22]	0
[23]	0
[24]	5.94
[25]	3.86
[26]	0.82
[27]	3.78

percent inhibition of viability [%]
Details	1 nM	10 nM	100 nM	1000 nM	10000 nM
[2]	-15.9	-23.8	-10.8	8.45	5.08
[3]	-31.1	-17.8	-2.41	-12.2	10.7
[4]	-5.32	-4.51	2.75	4.92	7.18
[5]	-6.63	-14.2	2.8	30.5	83.4
[6]	1.15	-4.29	-3.13	9.18	59.6
[7]	-14.4	-4.43	2.41	-2.08	5.65
[8]	-2.49	-9.33	-3.82	12.3	49.4
[9]	-7.97	-4.09	6.27	8.93	4.45
[10]	-5.4	-5.23	-8.91	-7.52	4.06
[11]	-6.62	-2.59	6.05	30.5	33.3
[12]	-3.04	-9.05	-5.45	9.61	44.8
[13]	-6.43	-4.11	-0.12	1.25	21.1
[14]	-1.34	0.71	-2.91	8.03	46.9
[28]	-9.29	-6.42	-4.58	4.67	5.9
